Test results published in US9464064B2, “HCV helicase inhibitors and methods of use thereof” (University of Kansas, priority 2011, dated 2016).
Several values for one entry are separate records, joined by “and”; a condition that tells them apart may be missing. Equal entries are not always repeated.

Key:
MBHA DNA substrate = experiment: Modified FID assay, SYBR Green I; assay type: binding; conditions: for DNA binding (%): SYBR Green I-FID, average (±SD) percent bound at 100 μM; for FID (SG) % Displaced @ 100 μM / EC50: SYBR Green; for EC50: read-out: FID (SG) EC50 (converted)
How it was run: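 Fluorescent intercalator displacement with SYBR Green I (0.68 μM) in place of ethidium bromide and MBHA DNA at 0.32 μM. Normalized data fit to concentration-response equation; EC50 given as mean ± SD of three independent triplicate titrations.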

[1] = molecular target: T1, E. coli SSB-Cy5-dT15 complex (Escherichia coli, UniProt P0AGE0); experiment: Escherichia coli SSB Cy5-dT15 binding assay (fluorescence polarization); conditions: for IC50: disruption of Cy5-dT15-SSB complex, read-out: Cy5-dT15-SSB Binding IC50; for inhibition at 100 µM: read-out: SSB % Displaced @ 100 μM; for EC50: read-out: SSB EC50
T1 construct: purchased Promega
T1 sequence (P0AGE0 2-178, one chain of several): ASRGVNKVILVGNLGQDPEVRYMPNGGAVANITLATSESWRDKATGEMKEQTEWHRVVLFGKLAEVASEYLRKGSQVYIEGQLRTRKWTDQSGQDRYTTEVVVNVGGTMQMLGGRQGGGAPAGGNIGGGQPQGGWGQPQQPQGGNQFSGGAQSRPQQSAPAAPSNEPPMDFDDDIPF
How it was run: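 Fluorescence polarization with 5 nM Cy5-dT15 and 20 nM E. coli SSB in 25 mM MOPS pH 7.5, 1.25 mM MgCl2, BSA, Tween 20, DTT. Screening at 1% DMSO; IC50 runs at 5% DMSO. Excitation 635 nm, parallel and perpendicular emission at 667 nm.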

NS3h_2a(JFH1) = molecular target: T2, NS3h_2a(JFH1) (Hepatitis C virus genotype 2a, UniProt Q99IB8); experiment: MBHA, DNA substrate, genotype 2a helicase; assay type: biochemical, hepatitis C virus genotype 2a(JFH1); conditions: genotype 2a (JFH1); read-out: Target Potency MBHA (IC50 avg., μM) 2a (JFH1) (converted)
T2 construct: truncated C-terminally His-tagged NS3 proteins lacking the N-terminal protease, called NS3h; His-tag (C); made in house
T2 sequence (Q99IB8 1196-1661): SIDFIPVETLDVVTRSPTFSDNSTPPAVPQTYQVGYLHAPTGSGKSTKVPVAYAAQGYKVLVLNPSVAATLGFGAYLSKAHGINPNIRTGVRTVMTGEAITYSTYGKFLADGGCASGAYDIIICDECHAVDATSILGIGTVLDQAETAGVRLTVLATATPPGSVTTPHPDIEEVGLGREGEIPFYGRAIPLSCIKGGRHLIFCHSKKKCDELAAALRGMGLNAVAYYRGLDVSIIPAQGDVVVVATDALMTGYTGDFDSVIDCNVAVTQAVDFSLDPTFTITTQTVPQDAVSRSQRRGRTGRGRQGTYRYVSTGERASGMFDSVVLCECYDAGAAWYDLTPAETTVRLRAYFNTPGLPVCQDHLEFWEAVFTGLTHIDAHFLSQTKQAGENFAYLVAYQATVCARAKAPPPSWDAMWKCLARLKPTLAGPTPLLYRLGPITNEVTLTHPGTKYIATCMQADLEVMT
Experimental: All oligonucleotides were purchased from Integrated DNA Technologies (IDT, Coralville, Iowa). Primuline derivatives were synthesized and purified as described herein. Three different NS3 proteins were used in this study. Two were truncated C-terminally His-tagged NS3 proteins lacking the N-terminal protease, called NS3h, the third was a full-length NS3 with the portion of NS4A needed for protease activation fused to its N-terminus, called scNS4A-NS3 (Howe, et al. (1999) Protein Sci. 8:1332-41), and the fourth was a 23 kDa scNS4A-NS3 protease fragment lacking the helicase domains, called scNS4A-NS3p (Protein One, Rockville, Md.). NS3h was expressed from two different HCV strains. NS3h_1b(con1) was from the con1 strain of genotype 1b (GENBANK accession AB114136), and NS3h_2a(JFH1) was from the JFH1 strain of HCV genotype 2a (GENBANK accession AJ238799). […] His-tagged recombinant NS3h_1b(con1), NS3h_2a(JFH1), and scNS4A-NS3 (also from genotype 1b(con1)) were expressed, and purified as previously described (Frick, et al. (2010) supra; Lam, et al. (2003) J. Virol. 77:3950-3961). The scNS4A-NS3p (genotype 1b) was from Protein One. A plasmid expressing NS3h from dengue virus strain 2 (NS3h_DV2)(GENBANK accession 2BMF) is known in the art (Xu, et al. (2005) J. Virol. 79:10278-10288), and used to express and purify NS3h_DV2 (Belon, et al. (2010) supra)
Compounds that specifically target less conserved regions of a HCV protein are often not potent inhibitors of the same protein derived from other genotypes, and they might be susceptible to rapid evolution of related viruses. As described herein, primuline derivatives can inhibit HCV helicase isolated from the genotype 1b(con1) strain. Therefore to further analyze specificity, the subset of primuline analogs was tested on the helicase isolated from the genotype 2a(JFH1) strain. The two recombinant proteins differ at 83 of their 480 amino acids. The JHF1 strain is also of interest because it serves as the backbone for HCV strains capable of replicating in cell culture (Wakita, et al. (2005) Nat. Med. 11:791-796). The molecular beacon-based helicase assay (MBHA) (Belon & Frick (2008) supra) was used to measure the ability of each compound to inhibit DNA unwinding catalyzed by NS3h isolated from genotype 2a(JFH1) (NS3h_2a(JFH1)). […] Selected compounds were also tested for the ability to inhibit helicase reactions catalyzed by full-length NS3 and a single chain NS4A-NS3 protein (scNS4A-NS3) described below and used for protease assays.

Huh-7.5 cells = experiment: Cell viability assay ([…]-GLO); assay type: cell-based, human; conditions: for Cell viability (% viable): 10 μM compound, triplicate, average ± SD
How it was run: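 Huh-7.5 cells exposed to compound for 72 hours, washed, then lysed in a 1:1 mix of growth medium and […]-GLO reagent. After 30 minutes at 23° C., luminescence was read for 1 second as a measure of viability.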

| SMILES | DNA binding (%) (MBHA DNA substrate) | FID (SG) % Displaced @ 100 μM (MBHA DNA substrate) | EC50 (MBHA DNA substrate) | IC50 [1] | inhibition at 100 µM [1] | EC50 [1] | IC50 (NS3h_2a(JFH1)) | Cell Viability (% @ 10 μM) (Huh-7.5 cells) | Cell viability (% viable) (Huh-7.5 cells) |
| --- | --- | --- | --- | --- | --- | --- | --- | --- | --- |
| COc1ccc(S(=O)(=O)Nc2ccc(-c3nc4ccc(-c5nc6ccc(C)c(S(=O)(=O)O)c6s5)cc4s3)cc2)cc1 [Compound 29, 2′-(4-(4-methoxyphenylsulfonamido)phenyl)-6-methyl-[2,6′-bibenzo[d]thiazole]-7-sulfonic acid] | 69 ± 4% | 69 ± 4% | 42 µM | 10 ± 2 µM | 98% | 10 µM | 13.4 µM | 75 ± 3% | 75 ± 3% |
| CC(=O)Nc1ccc(-c2nc3ccc(-c4nc5ccc(C)c(S(=O)(=O)O)c5s4)cc3s2)cc1 [Compound 30, 2′-(4-acetamidophenyl)-6-methyl-[2,6′-bibenzo[d]thiazole]-7-sulfonic acid] | 48 ± 5% | 48 ± 5% | > 100 µM | 17 ± 4 µM | 89% | 17 µM | > 100 µM | 102 ± 9% | 100 ± 6% |
| Cc1ccc2nc(-c3ccc4nc(-c5ccc(NC(=O)c6cccnc6)cc5)sc4c3)sc2c1S(=O)(=O)O [Compound 31, 6-methyl-2′-(4-(nicotinamido)phenyl)-[2,6′-bibenzo[d]thiazole]-7-sulfonic acid] | 15 ± 10% | 15 ± 10% | > 100 µM | 173 ± 354 µM | 48% | > 100 µM | 48 µM | 113 ± 6% | 113 ± 6% |
| Cc1ccc2nc(-c3ccc4nc(-c5ccc(NC(=O)c6ccncc6)cc5)sc4c3)sc2c1S(=O)(=O)O [Compound 32, 2′-(4-(isonicotinamido)phenyl)-6-methyl-[2,6′-bibenzo[d]thiazole]-7-sulfonic acid] | 19 ± 7% | 19 ± 7% | > 100 µM | 55 ± 20 µM | 63% | 55 µM | 52 ± 25 µM | 117 ± 5% | 117 ± 5% |
| Cc1ccc2nc(-c3ccc4nc(-c5ccc(N(C)C(=O)c6ccc7ccccc7c6)cc5)sc4c3)sc2c1S(=O)(=O)O [Compound 34, 6-methyl-2′-(4-(N-methyl-2-naphthamido)phenyl)-[2,6′-bibenzo[d]thiazole]-7-sulfonic acid] | 35 ± 23% | 35 ± 23% | > 100 µM | 9 ± 2 µM | 105% | 9 µM | 13.5 µM | 101 ± 9% |  |
| Cc1ccc2nc(-c3ccc4nc(-c5ccc(NC(=O)c6ccc7nc(-c8ccc(NC(=O)OCC9c%10ccccc%10-c%10ccccc%109)cc8)sc7c6)cc5)sc4c3)sc2c1S(=O)(=O)O.N [Compound 36] | 67 ± 5% | 67 ± 5% | 22 µM | 5 ± 1 µM | 95% | 5 µM | 1.9 µM | 95 ± 3% and 90 ± 4% | 90 ± 4% |
| Cc1ccc2nc(-c3ccc(NC(=O)c4ccc(NC(=O)c5ccccc5)cc4)cc3)sc2c1S(=O)(=O)O.N [Compound 40] |  | 18 ± 2% | > 100 µM | 57 ± 13 µM | 84% | 57 µM | 79.2 µM | 115 ± 3% |  |
| Cc1ccc2nc(-c3ccc4nc(-c5ccc(NC(=O)c6ccc(CNC(=O)OCC7c8ccccc8-c8ccccc87)cc6)cc5)sc4c3)sc2c1S(=O)(=O)O.N [Compound 41] |  | 53 ± 25% | 56 µM | 57 ± 16 µM | 59% | 57 µM | 4.6 µM | 102 ± 6% |  |
| Cc1ccc2nc(-c3ccc(NC(=O)c4ccc(NC(=O)OCC5c6ccccc6-c6ccccc65)cc4)cc3)sc2c1S(=O)(=O)O.N [Compound 42] |  | 44 ± 2% | > 100 µM | 27 ± 5 µM | 93% | 27 µM | 12 µM | 108 ± 2% |  |
| Cc1ccc2nc(-c3ccc(NC(=O)c4ccc(NC(=S)Nc5ccccc5)cc4)cc3)sc2c1S(=O)(=O)O.N [Compound 43] |  | 37 ± 4% | > 100 µM | 23 ± 5 µM | 93% | 23 µM | 29 µM | 106 ± 3% |  |
| Cc1ccc2nc(-c3ccc(NC(=O)c4ccc(NC(=O)c5ccc(C(F)(F)F)cc5)cc4)cc3)sc2c1S(=O)(=O)O.N [Compound 44] |  | 41 ± 2% | > 100 µM | 23 ± 6 µM | 86% | 23 µM | 14.7 µM | 97 ± 7% |  |
| Cc1ccc2nc(-c3ccc(NC(=O)c4ccc(NC(=O)Nc5ccccc5)cc4)cc3)sc2c1S(=O)(=O)O.N [Compound 45] |  | 17 ± 2% | > 100 µM | 20 ± 4 µM | 96% | 20 µM | 32 µM | 113 ± 4% |  |
| Cc1ccc2nc(-c3ccc(NC(=O)c4ccc(NC(=O)c5ccc(N)cc5)cc4)cc3)sc2c1S(=O)(=O)O.N [Compound 46] |  | 21% | > 100 µM | 17 ± 5 µM | 94% | 17 µM | 26 µM | 112 ± 5% |  |
